Earlier results, collected in patent publication US20060251690A1, “Skin enrichment using CoQ10 as the delivery system” (Zymes, LLC, priority 2005, published 2006).
Where two headings read alike, the source gives them in different places. Each block holds one molecule with its values, some of them ahead of it.

Experiments:
[1] = human skin (in vitro)
[2] = after chronic topical use, combined with other fat and water soluble ingredients
[3] = not given; remark: listed apart in the source
[4] = not given; remark: listed apart in the source

applied dose found in the epidermis and dermis [1]: Up to 10%
half-life after application: 12 h
SMILES: O=C(O)CCCCCCCC(=O)O [azelaic acid]

absorption of adapalene [2]: < 0.25 ng/mL
solubility in polar solvents such as ethanol ([3]; ethanol): only sparingly soluble
solubility in water ([3]; water): virtually insoluble
SMILES: COc1ccc(-c2ccc3cc(C(=O)O)ccc3c2)cc1C12CC3CC(CC(C3)C1)C2 [adapalene]

SMILES: COC1=C(OC)C(=O)C(C/C=C(\C)CC/C=C(\C)CC/C=C(\C)CC/C=C(\C)CC/C=C(\C)CC/C=C(\C)CC/C=C(\C)CC/C=C(\C)CC/C=C(\C)CCC=C(C)C)=C(C)C1=O [CoQ10, 2,3 dimethoxy-5 methyl-6 decaprenyl benzoquinone]
half life [4]: > 30 h

SMILES: O=C1O[C@H]([C@@H](O)CO)C(O)=C1O [vitamin C]
half life ([4]; autoxidation named as cause): 0.5 h
